Results published in paper PMC3781062 (PLoS ONE, 2013).
Residue numbers refer to the chain shown, from its start. Where “and” joins values, the source holds several entries; their conditions need not be identical. Equal entries are not always repeated.

What was measured:
human liver microsomes = assay: 8-MOP metabolism (substrate depletion) in human liver microsomes; type: in vitro ADME; conditions: α-naphthoflavone 5 µM
Description: (§5) After 3 min 37°C pre-incubation, reactions were initiated by 40 µl 5 mM NADPH containing 30 mM glutathione (GSH) in 50 mM PB (pH 7.4). Reactions were incubated for 10 min in a shaking water bath at 37°C, terminated by the addition of 100 µl ice-cold methanol containing 3% perchloric acid, and placed on ice for 10 min. Zero-time controls were terminated before the addition of P450 membranes; no-NADPH control reactions were initiated with 20 µl 50 mM PB (pH 7.4) containing 30 mM GSH. Samples were vortexed for 1 min, centrifuged at 12 000 rpm for 5 min, supernatants collected and analysed by HPLC analysis [28].

CYP1A1 = target: T1, CYP1A1 (Homo sapiens, UniProt P04798); conditions: α-naphthoflavone 5 µM; recombinant CYP1A1
T1 sequence (P04798 1-512): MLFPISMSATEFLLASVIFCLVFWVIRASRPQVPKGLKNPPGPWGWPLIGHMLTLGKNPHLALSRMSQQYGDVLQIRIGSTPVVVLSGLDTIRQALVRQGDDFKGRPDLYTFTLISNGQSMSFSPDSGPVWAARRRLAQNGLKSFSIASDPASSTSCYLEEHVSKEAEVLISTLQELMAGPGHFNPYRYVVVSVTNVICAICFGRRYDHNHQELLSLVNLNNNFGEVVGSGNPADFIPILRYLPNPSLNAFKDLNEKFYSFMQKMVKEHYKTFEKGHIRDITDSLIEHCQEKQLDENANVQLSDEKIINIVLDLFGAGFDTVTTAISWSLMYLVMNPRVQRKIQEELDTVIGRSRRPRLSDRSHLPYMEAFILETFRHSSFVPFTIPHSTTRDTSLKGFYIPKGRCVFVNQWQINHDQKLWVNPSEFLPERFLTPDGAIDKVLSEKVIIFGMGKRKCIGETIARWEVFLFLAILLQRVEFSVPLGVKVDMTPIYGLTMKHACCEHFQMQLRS
Description: as §5

CYP1B1 [1] = conditions: α-naphthoflavone 5 µM; recombinant CYP1B1
Description: as §5

CYP1B1 [2] = target: T2, CYP1B1 (Homo sapiens, UniProt Q16678, L432V); assay: Inhibition of CYP1B1-dependent EROD activity, E. coli membranes co-expressing CYP1B1 and CPR; type: biochemical
T2 construct: made in house; host or cells: E. coli JM109
T2 sequence (Q16678 1-543 L432V): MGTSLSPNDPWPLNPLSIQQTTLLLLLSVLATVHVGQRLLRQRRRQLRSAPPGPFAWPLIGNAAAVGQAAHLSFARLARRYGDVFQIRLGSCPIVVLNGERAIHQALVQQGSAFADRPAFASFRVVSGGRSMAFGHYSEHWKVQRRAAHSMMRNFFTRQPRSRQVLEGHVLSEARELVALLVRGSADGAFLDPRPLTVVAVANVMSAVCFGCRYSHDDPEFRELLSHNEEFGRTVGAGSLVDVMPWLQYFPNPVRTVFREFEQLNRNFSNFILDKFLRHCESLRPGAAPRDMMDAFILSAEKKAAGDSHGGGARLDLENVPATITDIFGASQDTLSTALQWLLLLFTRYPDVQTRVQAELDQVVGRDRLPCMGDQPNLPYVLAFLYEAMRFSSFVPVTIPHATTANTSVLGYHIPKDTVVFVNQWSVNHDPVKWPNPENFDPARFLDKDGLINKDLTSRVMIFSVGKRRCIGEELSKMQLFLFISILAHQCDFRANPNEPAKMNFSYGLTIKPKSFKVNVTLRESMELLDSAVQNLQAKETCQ
Description: (§1) EROD activity was determined as previously described, but modified in 96-well plate format with quadruplicate replicates, using a Fluoroskan fluorescence reader (Labsystems, Cambridge, UK). […] Calibration curves were constructed with authentic resorufin standards and linear regression analysis used to calculate the amount of resorufin formed in each test sample. Enzyme kinetics for CYP1B1-catalysed EROD activity were determined at substrate concentrations from 0.002 to 2 µM. Apparent Km and Vmax values were estimated by non-linear regression analysis (GraFit software program, UK) of the substrate concentration [S]-enzyme activity [V], fitting data to a Michaelis-Menten model.

CYP1B1*1 = CYP1B1*1 (Homo sapiens, UniProt Q16678); assay: Inhibition of EROD activity of CYP1B1 allelic variant co-expressed with CPR; type: biochemical; conditions: IC50 against CYP1B1-dependent EROD activity, mean ± SD of triplicate determinations
Description: (§2) Construction of CYP1B1 and CPR expression plasmids has been described previously. The CYP1B1 alleles CYP1B1*1, CYP1B1*3 and CYP1B1*4 were co-expressed with CPR in E. coli JM109 cells and membranes prepared as described previously. P450 content was determined spectrophotometrically, and CPR activity estimated by cytochrome c reduction. […] Solubilised protein lysates or human liver microsomes were separated by SDS-PAGE, transferred onto Hybond-ECL nitrocellulose membranes (Amersham, UK) and probed with CYP1B1 (BD Gentest, Woburn, MA) and CPR antibodies, as previously described.
as §1

CYP1B1*3 = CYP1B1*3 (Homo sapiens, UniProt Q16678, form not given); assay: as above; type: biochemical; conditions: probe 7-ethoxyresorufin (EROD)
Description: as §2, §1

CYP1B1*4 = target: T3, CYP1B1*4 (Homo sapiens, UniProt Q16678, L432V/N453S); assay: as above; type: biochemical; conditions: mean ± SD of triplicate determinations, read-out: IC50 against CYP1B1-dependent EROD activity (converted)
T3 construct: made in house; host or cells: E. coli JM109
T3 sequence (Q16678 1-543 L432V/N453S): T2 sequence (Q16678 1-543 L432V) with N453S
Description: as §2, §1

CHO cells = assay: PUVA cytotoxicity, neutral red uptake assay
Description: (§3) CHO cell lines stably over-expressing CYP1B1 and CPR were generated as previously described. CHO cells were maintained at 37°C/5% CO2 in Dulbecco’s Modified Eagle’s medium (DMEM) supplemented with 10% fetal bovine serum (FBS), 100 U/ml penicillin, 100 µg/ml streptomycin, 1 U/ml each of hypoxanthine and thymine (Invitrogen, Paisley-UK). Similar culture conditions, with the addition of G-418 (400 µg/ml), were used for CHO cells stably expressing CPR (CHO-CPR). CHO cells stably co-expressing CYP1B1 and CPR (CHO-1B1/CPR) were maintained at 37°C/5% CO2, but in hypoxanthine and thymine-free DMEM supplemented with 10% dialysed FBS and the appropriate selection (0.3 µM MTX and 400 µg/ml G-418). HaCaT keratinocytes were grown to 80% confluence in DMEM supplemented with 10% fetal bovine serum (FBS), 100 U/ml penicillin, 100 µg/ml streptomycin and 2 mM glutamine. Cells were harvested and microsomes prepared as described previously. HaCaT cell microsomes and microsomes from human skin biopsies obtained from peri-lesional skin from psoriasis patients, [13] were used to investigate functional CYP1B1 expression using EROD assays.
(§4) To investigate CHO cell sensitivity to UVA and PUVA, actively dividing cells (10000 cells/well) were seeded in 96-well plates (Iwaki, Japan) in quadruplicates in 200 µl culture medium and allowed to grow for 18–20 h. Cells were irradiated at room temperature with a UVA source (2×6 ft Cosmolux 15500/100 W, 1.7 mW/cm^2 (320–400 nm; λmax = 365 nm), Germany) through a 4 mm thick window glass filter at multiple UVA doses (0, 1.5, 4.0 and 7.5 J/cm^2), monitoring irradiance with a Waldmann UV meter equipped with UVA detector. Control samples were kept in the dark under the same conditions. […] Control samples were pre-incubated with solvent and kept in the dark under the same conditions. After each treatment, fresh culture medium was added and cells returned to an incubator at 37°C/5%CO2 for 24 h. Cell viability was assessed using neutral red uptake assays; quadruplicate replicates of each treatment were performed, and each experiment repeated twice. PUVA cytotoxicity data was assessed by non-linear regression analysis for dose-response curves (IC50) fitting (GraFit software program, UK) and unpaired Student’s t-test (Statview 4.1 software).

CHO-CPR cells = assay: PUVA cytotoxicity, neutral red uptake assay
Description: as §3, §4

Compound	8-MOP metabolism in presence of inhibitor (human liver microsomes)	8-MOP metabolism in presence of inhibitor (CYP1A1)	8-MOP metabolism in presence of inhibitor (CYP1B1 [1])	IC50 (CYP1B1 [2]; 7-ethoxyresorufin at Km concentration, estimated) [nM]	Mode of inhibition of CYP1B1 (CYP1B1 [2]; Lineweaver-Burk plots, six 8-MOP and four 7-ethoxyresorufin concentrations)	Ki (CYP1B1 [2]; n = 3) [nM]	IC50 (CYP1B1*1)	IC50 at 3 min (CYP1B1*3)	IC50 (CYP1B1*4)	Cytotoxicity of 8-MOP alone (no UVA) (CHO cells; CHO cells, 8-MOP 0–5 µM, dark)	IC50 (CHO cells; Cricetulus griseus, CHO, light or radiation study, read-out: IC50 for 8-MOP in the presence of UVA)	Cytotoxicity of 8-MOP alone (no UVA) (CHO-CPR cells; CHO-CPR cells, 8-MOP alone)	IC50 (CHO-CPR cells; Cricetulus griseus, light or radiation study, read-out: IC50 for 8-MOP in the presence of UVA)
O=c1cc(-c2ccccc2)oc2c1ccc1ccccc12 [α-naphthoflavone]	59 % of control levels	53 % of control levels	62 % of control levels										
COc1c2occc2cc2ccc(=O)oc12 [8-MOP, 8-methoxypsoralen]				2000 ± 100	mixed inhibition	3580 ± 1000	1710 nM and 1700 nM	0.326 µg/mL and 1.5 µM	601 nM and 600 nM	no significant cytotoxicity	0.461 µg/mL and 2.13 µM	not cytotoxic	0.54 µg/mL and 2.5 µM
